Measured values taken from patent US20160106439A1, “PNEUMATIC TOURNIQUET” (BIONUMERIK PHARMACEUTICALS, INC., priority 2013, published 2016).
Read-outs that look alike come from different tables or passages of the source.

Legend:
IGF1R = IGF1R (Homo sapiens, UniProt P08069); assay: IGF1R kinase assay (ADP-glo) after pre-incubation; type: biochemical
Procedure: Prior to initiating the IGF1R kinase assays, IGF1R was incubated with Tavocept-IGF1R kinase phosphorylated the IGF1Rtide substrate using the ATP cofactor and produced ADP. The assays in half area 96-well microtiter plates were 10 μL in volume and contained IGF1R (4 ng total or 0.4 ng/μL), ATP (100 μM), IGF1Rtide substrate ([…]), and the concentrations of the various test articles as indicated. Additionally, kinase assay buffer was added to achieve a final reaction volume of 10 μL per assay. IGF1R kinase reactions were incubated for 60 minutes at 25° C. in a water bath. Following this 60 minute incubation, reactions were transferred to microplates and the kinase activity was evaluated using the ADP-glo system from Promega (this system monitors ADP produced when IGF1R phosphorylates the IGF1Rtide substrate).

recombinant human MET = recombinant human MET (Homo sapiens, UniProt P08581); assay: biochemical
recombinant human MET, sequence (P08581 956-1390 limits assumed): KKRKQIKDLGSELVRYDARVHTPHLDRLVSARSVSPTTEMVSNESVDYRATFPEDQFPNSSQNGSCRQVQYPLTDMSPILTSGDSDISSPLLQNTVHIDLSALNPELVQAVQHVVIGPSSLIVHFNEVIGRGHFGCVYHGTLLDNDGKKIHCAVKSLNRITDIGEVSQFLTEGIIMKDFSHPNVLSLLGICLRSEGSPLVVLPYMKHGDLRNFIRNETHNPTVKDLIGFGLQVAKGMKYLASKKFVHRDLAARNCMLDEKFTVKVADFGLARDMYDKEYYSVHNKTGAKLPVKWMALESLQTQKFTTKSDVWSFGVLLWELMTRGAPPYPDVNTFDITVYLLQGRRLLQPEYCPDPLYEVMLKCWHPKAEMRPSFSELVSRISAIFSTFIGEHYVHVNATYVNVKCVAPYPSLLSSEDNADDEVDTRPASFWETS
Procedure: The substrate that was phosphorylated by the kinase, polyglutamate-tyrosine (PolyGT), was purchased from SignalChem (Cat. #P61-58, lot #R098-4).
All other reagents were purchased from Sigma Aldrich. A Tecan Ultra microplate reader with XFluor4 software (Tecan, V4.51) and RdrOle software (Tecan, V4.50) were used in this study.
MET phosphorylated the polyGT substrate using the ATP cofactor and produced ADP. […] For most assays, a stock of ATP (1 mM) and PolyGT (1 mg/mL) was used. […] The reactions, in microplate, were incubated for 60 minutes at 25° C. on a heat block. Following this 60 minute incubation, the kinase activity was evaluated using the ADP-Glo system from Promega that monitored ADP produced when MET phosphorylated the PolyGT substrate.
Kinase assays were run in triplicate or quadruplicate in microplates. Following this, the ADP-Glo detection system (Promega) was used to determine how much ADP had been produced. For 10 μL volume assays, to each microplate well containing 10 μL of kinase reaction was added ADP-Glo reagent (10 μL), plates were spun in a table top centrifuge (1000 rpm (123×g) for 1 minute) to ensure no reagent remained on the well walls, and then agitated for 1 minute to ensure optimal mixing. Plates were incubated at 25 C on a heat block for 40 minutes. Next, kinase detection reagent (20 μL) was added and, as above, centrifugation and agitation were repeated; plates were allowed to incubate at 25° C. on a heat block for 30 minutes. Following the incubation of the kinase detection reagent, plates were read on a Tecan Ultra microplate reader. The Tecan Ultra contained a built-in plate definition file for the whole area 96-well white Corning plates but a plate definition file for the half area 96-well Corning plates was created using the RdrOle component of the Tecan Ultra software.
Kinases vary in their ability to turnover ATP in vitro; therefore, the activity of the MET over a concentration range from 0.78 ng to 20 ng was evaluated in assay volumes of 10 μL. See, FIG. 7.
Therefore, each mole of polymer of 20,000 g/mole would contain approximately 28 moles of the glu-glu-glu-glu-tyr “subpolymer” in a 10 μL assay volume containing 1 μg of the polyGT substrate. […] This was a vast excess of possible tyrosine phosphorylation sites, ensuring that the substrate for phosphorylation was not rate limiting (assuming the higher mass range would produce an even larger excess of glu-glu-glu-glu-tyr “subpolymers”).
Data from MET assays run on the Tecan Ultra microplate spectrophotometer were collected in Microsoft Excel. Error calculations and graphical representations were performed in Microsoft Office Excel (Microsoft Corporation, Redmond, Wash., USA). Determination of IC25 and IC50 values were accomplished using Origin Lab software (OriginLab Corporation, Northampton, Mass., USA).

[1] = biological target: human peroxiredoxin 4 (PRX4) (Homo sapiens, UniProt Q13162); assay: Tavocept-derived mesna adducts on Prx 4 (MS, X-ray crystallography)
human peroxiredoxin 4 (PRX4), sequence (Q13162 79-271 limits assumed): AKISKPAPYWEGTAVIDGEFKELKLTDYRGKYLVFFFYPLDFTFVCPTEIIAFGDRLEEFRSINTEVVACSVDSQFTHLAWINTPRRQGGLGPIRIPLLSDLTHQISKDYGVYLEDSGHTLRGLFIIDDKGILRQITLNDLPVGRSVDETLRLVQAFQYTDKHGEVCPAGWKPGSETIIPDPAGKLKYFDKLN

[2] = biological target: T1, human glutaredoxin (Grx1) (Homo sapiens, UniProt P35754); assay: Mass Spectroscopy of Grx-Tavocept reaction; type: binding; details: 40 mM Tavocept, 4° C. overnight
T1 construct: 6xHis (TEV-cleavable) (N, cleaved yes); made in house; host or cells: E. coli BL21 (RIPL)
T1 sequence (P35754 whole entry): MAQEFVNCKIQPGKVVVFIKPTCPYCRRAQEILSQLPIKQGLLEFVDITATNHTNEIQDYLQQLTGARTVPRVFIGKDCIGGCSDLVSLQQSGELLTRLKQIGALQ

IGF1R, sequence (P08069 31-1367): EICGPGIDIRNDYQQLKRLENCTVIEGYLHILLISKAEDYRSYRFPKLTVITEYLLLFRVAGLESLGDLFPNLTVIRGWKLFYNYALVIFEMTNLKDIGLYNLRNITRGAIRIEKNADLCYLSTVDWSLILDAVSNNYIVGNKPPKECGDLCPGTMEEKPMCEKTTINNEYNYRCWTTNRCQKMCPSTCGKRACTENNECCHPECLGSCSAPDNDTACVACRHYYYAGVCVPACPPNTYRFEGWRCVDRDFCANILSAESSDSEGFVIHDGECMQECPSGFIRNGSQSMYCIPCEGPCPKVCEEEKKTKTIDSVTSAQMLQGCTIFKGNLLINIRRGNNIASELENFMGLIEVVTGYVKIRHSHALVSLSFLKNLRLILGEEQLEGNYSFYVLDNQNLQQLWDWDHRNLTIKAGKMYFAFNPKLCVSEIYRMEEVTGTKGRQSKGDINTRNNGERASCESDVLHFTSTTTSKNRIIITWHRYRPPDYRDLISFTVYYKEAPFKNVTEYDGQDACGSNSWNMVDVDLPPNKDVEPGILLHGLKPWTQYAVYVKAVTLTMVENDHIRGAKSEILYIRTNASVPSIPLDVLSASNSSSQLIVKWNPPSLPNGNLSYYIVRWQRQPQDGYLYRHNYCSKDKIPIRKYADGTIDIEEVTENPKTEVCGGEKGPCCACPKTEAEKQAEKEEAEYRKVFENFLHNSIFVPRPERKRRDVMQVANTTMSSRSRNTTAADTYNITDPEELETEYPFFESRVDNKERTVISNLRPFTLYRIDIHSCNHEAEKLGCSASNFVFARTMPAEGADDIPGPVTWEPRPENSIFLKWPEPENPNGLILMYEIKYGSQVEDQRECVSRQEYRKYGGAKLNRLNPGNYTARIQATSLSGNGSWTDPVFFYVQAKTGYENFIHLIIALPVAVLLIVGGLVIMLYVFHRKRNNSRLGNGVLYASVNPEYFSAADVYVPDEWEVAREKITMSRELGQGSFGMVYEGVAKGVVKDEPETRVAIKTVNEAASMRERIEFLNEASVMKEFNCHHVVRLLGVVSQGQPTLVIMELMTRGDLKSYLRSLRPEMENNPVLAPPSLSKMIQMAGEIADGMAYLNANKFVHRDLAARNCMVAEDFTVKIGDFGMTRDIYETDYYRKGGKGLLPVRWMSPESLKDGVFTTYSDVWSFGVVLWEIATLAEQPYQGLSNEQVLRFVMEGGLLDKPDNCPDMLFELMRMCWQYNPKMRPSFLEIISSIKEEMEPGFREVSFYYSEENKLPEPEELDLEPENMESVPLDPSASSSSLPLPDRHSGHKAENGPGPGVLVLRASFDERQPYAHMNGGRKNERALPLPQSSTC

O=S(=O)([O-])CCSSCCS(=O)(=O)[O-].[Na+].[Na+] [Tavocept, disodium 2,2′-dithio-bis-ethane sulfonate]
loss of IGF1R kinase activity (IGF1R; 20 mM Tavocept pre-incubated with IGF1R for 24 hours, 100 μM ATP): approximately 33% | loss of IGF1R kinase activity (IGF1R; other concentrations and pre-incubation times): ≤ 10% | greater inhibition of MET than Staurosporine alone (recombinant human MET; 10 μM ATP, MET 0.1 ng/μL, 5 mM Tavocept + 100 nM Staurosporine): 22% | greater inhibition of MET than Staurosporine alone (recombinant human MET; 10 μM ATP, MET 0.1 ng/μL, 5 mM Tavocept + 300 nM Staurosporine): 8% | greater inhibition of MET than Staurosporine alone (recombinant human MET; 10 μM ATP, MET 0.1 ng/μL, 10 mM Tavocept + 100 nM Staurosporine): 23% | greater inhibition of MET than Staurosporine alone (recombinant human MET; 10 μM ATP, MET 0.1 ng/μL, 10 mM Tavocept + 300 nM Staurosporine): 8% | IC50 (recombinant human MET; IC50, MET 2.5 ng/μL, ATP 100 μM): > 40 mM | IC50 (recombinant human MET; IC50 on MET, 10 μM ATP, 0.1 ng/μL MET): 15.2 ± 0.36 mM | IC50 (recombinant human MET; IC50 on MET, 10 μM ATP, 2.5 ng/μL MET, single experiment): 17.4 mM | IC50 (recombinant human MET; IC50 on MET, 100 μM ATP, 0.1 ng/μL MET, single experiment): 37.1 mM | IC50 (recombinant human MET; IC50 on MET, 100 μM ATP, 2.5 ng/μL MET): > 40 mM | inhibition at 5000 µM (recombinant human MET; read-out: greater inhibition of MET than Crizotinib alone, 10 μM ATP, MET 0.1 ng/μL, 5 mM Tavocept + 20 nM Crizotinib): 10% | inhibition at 5000 µM (recombinant human MET; read-out: greater inhibition of MET than Crizotinib alone, 10 μM ATP, MET 0.1 ng/μL, 5 mM Tavocept + 40 nM Crizotinib): 6% | inhibition at 10000 µM (recombinant human MET; read-out: greater inhibition of MET than Crizotinib alone, 10 μM ATP, MET 0.1 ng/μL, 10 mM Tavocept + 20 nM Crizotinib): 16% | inhibition at 10000 µM (recombinant human MET; read-out: greater inhibition of MET than Crizotinib alone, 10 μM ATP, MET 0.1 ng/μL, 10 mM Tavocept + 40 nM Crizotinib): 11% | inhibition at 5000 µM (recombinant human MET; read-out: greater inhibition of MET than Crizotinib alone, 100 μM ATP, MET 2.5 ng/μL, 5 mM Tavocept + 45 nM Crizotinib): 15% | inhibition at 5000 µM (recombinant human MET; read-out: greater inhibition of MET than Crizotinib alone, 100 μM ATP, MET 2.5 ng/μL, 5 mM Tavocept + 90 nM Crizotinib): 10% | inhibition at 10000 µM (recombinant human MET; read-out: greater inhibition of MET than Crizotinib alone, 100 μM ATP, MET 2.5 ng/μL, 10 mM Tavocept + 45 nM Crizotinib): 14% | inhibition at 10000 µM (recombinant human MET; read-out: greater inhibition of MET than Crizotinib alone, 100 μM ATP, MET 2.5 ng/μL, 10 mM Tavocept + 90 nM Crizotinib): 10% | inhibition at 5000 µM (recombinant human MET; read-out: greater inhibition of MET than Staurosporine alone, 10 μM ATP, MET 0.1 ng/μL, 5 mM Tavocept + 100 nM Staurosporine): 22% | inhibition at 5000 µM (recombinant human MET; read-out: greater inhibition of MET than Staurosporine alone, 10 μM ATP, MET 0.1 ng/μL, 5 mM Tavocept + 300 nM Staurosporine): 8% | inhibition at 10000 µM (recombinant human MET; read-out: greater inhibition of MET than Staurosporine alone, 10 μM ATP, MET 0.1 ng/μL, 10 mM Tavocept + 100 nM Staurosporine): 23% | inhibition at 10000 µM (recombinant human MET; read-out: greater inhibition of MET than Staurosporine alone, 10 μM ATP, MET 0.1 ng/μL, 10 mM Tavocept + 300 nM Staurosporine): 8% | number of Tavocept-derived mesna moieties on Prx 4 ([1]; Mass Spectroscopy after reaction with Tavocept): 2 | Prx 4 cysteine bound by Tavocept-derived mesna moiety ([1]; X-ray, 2.3 Å, 40 mM Tavocept): Cys124 | Tavocept-derived mesna adducts per molecule of Grx [2]: one to two
